# Target: CDK2/Cyclin E1 (Homo sapiens (Human), UniProt P24941)
# Assay: CDK2/Cyclin E1 HTRF enzyme activity assay
# Format: biochemical
# Settings: 1 mM ATP
# Protocol: CDK2/Cyclin E1 enzyme activity assays utilize full-length human CDK2 co-expressed as N-terminal GST-tagged protein with FLAG-Cyclin E1 in a baculovirus expression system (Carna Product Number 04-165). Assays are conducted in white 384-well polystyrene plates in a final reaction volume of 8 μL. CDK2/Cyclin E1 (0.25 nM) is incubated with compounds (40 nL serially diluted in DMSO) in the presence of ATP (50 μM or 1 mM) and 50 nM ULight™-labeled eIF4E-binding protein 1 (THR37/46) peptide (PerkinElmer) in assay buffer (containing 50 mM HEPES pH 7.5, 1 mM EGTA, 10 mM MgCl2, 2 mM DTT, 0.05 mg/ml BSA, and 0.01% Tween 20) for 60 minutes at room temperature. The reactions are stopped by the addition of EDTA and Europium-labeled anti-phospho-4E-BP1 antibody (PerkinElmer), for a final concentration of 15 mM and 1.5 nM, respectively. HTRF signals are read after 1 hour at room temperature on a PHERAstar FS plate reader (BMG Labtech). Data is analyzed with IDBS XLFit and GraphPad Prism 5.0 software using a three or four parameter dose response curve to determine IC50 for each compound.
row,SMILES,IC50
1,"Cc1nn(C)cc1-c1nc2c(n1C1CC1)-c1nc(NC3CCN(S(C)(=O)=O)CC3)ncc1CC2 [Example 24, 1-Cyclopropyl-2-(1,3-dimethyl-1H-pyrazol-4-yl)-N-(1-(methylsulfonyl)piperidin-4-yl)-4,5-dihydro-1H-imidazo[4,5-h]quinazolin-8-amine]",≤ 50 nM
2,"CS(=O)(=O)N1CCC(Nc2ncc3c(n2)-c2c(nc(-c4ccccc4F)n2C2CC2)CC3)CC1 [Example 23, 1-Cyclopropyl-2-(2-fluorophenyl)-N-(1-(methylsulfonyl)piperidin-4-yl)-4,5-dihydro-1H-imidazo[4,5-h]quinazolin-8-amine]",≤ 50 nM
3,"Cc1nc2c(n1C1CC1)-c1nc(N[C@H]3CCN(S(=O)(=O)c4cnn(C)c4)C[C@H]3C)ncc1CC2 [Example 32, 1-Cyclopropyl-2-methyl-N-((3R,4S)-3-methyl-1-((1-methyl-1H-pyrazol-4-yl)sulfonyl)piperidin-4-yl)-4,5-dihydro-1H-imidazo[4,5-h]quinazolin-8-amine]",≤ 50 nM
4,"Cc1nc2c(n1C)-c1nc(NC3CCN(S(=O)(=O)c4cccc(C#N)c4)CC3)ncc1CC2 [Example 5, 3-((4-((1,2-Dimethyl-4,5-dihydro-1H-imidazo[4,5-h]quinazolin-8-yl)amino)piperidin-1-yl)sulfonyl)benzonitrile]",≤ 50 nM
5,"CS(=O)(=O)N1CCC(Nc2ncc3c(n2)-c2c(nc(-c4ccccc4)n2C2CC2)CC3)CC1 [Example 22, 1-Cyclopropyl-N-(1-(methylsulfonyl)piperidin-4-yl)-2-phenyl-4,5-dihydro-1H-imidazo[4,5-h]quinazolin-8-amine]",≤ 50 nM
6,"Cc1nc2c(n1C)-c1nc(N[C@H]3CCN(S(=O)(=O)c4ccc(N5CC[C@@H](O)C5)nc4)C[C@H]3C)ncc1CC2 [Example 30, (R)-1-(5-(((3R,4S)-4-((1,2-Dimethyl-4,5-dihydro-1H-imidazo[4,5-h]quinazolin-8-yl)amino)-3-methylpiperidin-1-yl)sulfonyl)pyridin-2-yl)pyrrolidin-3-ol]",≤ 50 nM
7,"Cc1nc2c(n1C1CC1)-c1nc(NC3CCN(S(C)(=O)=O)CC3)ncc1CC2(C)C [Example 25, 1-Cyclopropyl-2,4,4-trimethyl-N-(1-(methylsulfonyl)piperidin-4-yl)-4,5-dihydro-1H-imidazo[4,5-h]quinazolin-8-amine]",≤ 50 nM
8,"Cc1nc2c(n1C)-c1nc(NC3CCN(S(=O)(=O)C4CC4)CC3)ncc1CC2 [Example 2, N-(1-(Cyclopropylsulfonyl)piperidin-4-yl)-1,2-dimethyl-4,5-dihydro-1H-imidazo[4,5-h]quinazolin-8-amine]",≤ 50 nM
9,"Cc1nc2c(n1C)-c1nc(N[C@H]3CCN(S(=O)(=O)c4cccc(N5CCN(C)CC5)n4)C[C@H]3C)ncc1CC2 [Example 29, 1,2-Dimethyl-N-((3R,4S)-3-methyl-1-((6-(4-methylpiperazin-1-yl)pyridin-2-yl)sulfonyl)piperidin-4-yl)-4,5-dihydro-1H-imidazo[4,5-h]quinazolin-8-amine]",≤ 50 nM
10,"Cn1cc2c(n1)CCc1cnc(NC3CCN(S(C)(=O)=O)CC3)nc1-2 [Example 9, 8-Methyl-N-(1-(methylsulfonyl)piperidin-4-yl)-6,8-dihydro-5H-pyrazolo[3,4-h]quinazolin-2-amine]",50 to 200 nM
11,"Cc1nc2c(n1C1CC1)-c1nc(N[C@H]3CCN(S(=O)(=O)c4cn(C)cn4)C[C@H]3C)ncc1CC2 [Example 31, 1-Cyclopropyl-2-methyl-N-((3R,4S)-3-methyl-1-((1-methyl-1H-imidazol-4-yl)sulfonyl)piperidin-4-yl)-4,5-dihydro-1H-imidazo[4,5-h]quinazolin-8-amine]",≤ 50 nM
12,"Cc1c2c(nn1-c1c(F)cccc1F)CCc1cnc(NC3CCN(S(C)(=O)=O)CC3)nc1-2 [Example 11, 8-(2,6-Difluorophenyl)-9-methyl-N-(1-(methylsulfonyl)piperidin-4-yl)-6,8-dihydro-5H-pyrazolo[3,4-h]quinazolin-2-amine]",≤ 50 nM
13,"CS(=O)(=O)N1CCC(Nc2ncc3c(n2)-c2c(nc(Br)n2C2CC2)CC3)CC1 [Example 21, 2-Bromo-1-cyclopropyl-N-(1-(methylsulfonyl)piperidin-4-yl)-4,5-dihydro-1H-imidazo[4,5-h]quinazolin-8-amine]",≤ 50 nM
14,"CS(=O)(=O)N1CCC(Nc2ncc3c(n2)-c2c(nn(CCO)c2C2CC2)CC3)CC1 [Example 15, 2-(9-Cyclopropyl-2-((1-(methylsulfonyl)piperidin-4-yl)amino)-5,6-dihydro-8H-pyrazolo[3,4-h]quinazolin-8-yl)ethan-1-ol]",≤ 50 nM

# Second part, the compound after the results:
row,IC50,SMILES
1,≤ 50 nM,"CS(=O)(=O)N1CCC(Nc2ncc3c(n2)-c2c(ncn2C2CC2)CC3)CC1 [Example 20, 1-Cyclopropyl-N-(1-(methylsulfonyl)piperidin-4-yl)-4,5-dihydro-1H-imidazo[4,5-h]quinazolin-8-amine]"
2,≤ 50 nM,"Cc1nc(S(=O)(=O)N2CCC(Nc3ncc4c(n3)-c3c(nc(C)n3C)CC4)CC2)cn1C [Example 6, N-(1-((1,2-Dimethyl-1H-imidazol-4-yl)sulfonyl)piperidin-4-yl)-1,2-dimethyl-4,5-dihydro-1H-imidazo[4,5-h]quinazolin-8-amine]"
3,≤ 50 nM,"CCS(=O)(=O)N1CCC(Nc2ncc3c(n2)-c2c(nc(C)n2C)CC3)CC1 [Example 1, N-(1-(Ethylsulfonyl)piperidin-4-yl)-1,2-dimethyl-4,5-dihydro-1H-imidazo[4,5-h]quinazolin-8-amine]"
4,≤ 50 nM,"Cc1nc2c(n1C(C)C)-c1nc(NC3CCN(S(C)(=O)=O)CC3)ncc1CC2 [Example 27, 1-Isopropyl-2-methyl-N-(1-(methylsulfonyl)piperidin-4-yl)-4,5-dihydro-1H-imidazo[4,5-h]quinazolin-8-amine]"
5,50 to 200 nM,"Cc1nc2c([nH]1)-c1nc(NC3CCN(S(C)(=O)=O)CC3)ncc1CC2 [Example 7, 2-Methyl-N-(1-(methylsulfonyl)piperidin-4-yl)-4,5-dihydro-1H-imidazo[4,5-h]quinazolin-8-amine]"
6,≤ 50 nM,"CS(=O)(=O)N1CCC(Nc2ncc3c(n2)-c2c(nn(C4CC4)c2C2CC2)CC3)CC1 [Example 16, 8,9-Dicyclopropyl-N-(1-(methylsulfonyl)piperidin-4-yl)-6,8-dihydro-5H-pyrazolo[3,4-h]quinazolin-2-amine]"
7,≤ 50 nM,"Cc1nc2c(n1Cc1ccccc1)-c1nc(NC3CCN(S(C)(=O)=O)CC3)ncc1CC2 [Example 8, 1-Benzyl-2-methyl-N-(1-(methylsulfonyl)piperidin-4-yl)-4,5-dihydro-1H-imidazo[4,5-h]quinazolin-8-amine]"
8,≤ 50 nM,"Cc1nc2c(n1C)-c1nc(NC3CCN(S(=O)(=O)c4cn[nH]c4)CC3)ncc1CC2 [Example 4, N-(1-((1H-Pyrazol-4-yl)sulfonyl)piperidin-4-yl)-1,2-dimethyl-4,5-dihydro-1H-imidazo[4,5-h]quinazolin-8-amine]"
9,≤ 50 nM,"CC(C)c1nc2c(n1C)-c1nc(NC3CCN(S(C)(=O)=O)CC3)ncc1CC2 [Example 18, 2-Isopropyl-1-methyl-N-(1-(methylsulfonyl)piperidin-4-yl)-4,5-dihydro-1H-imidazo[4,5-h]quinazolin-8-amine]"
10,≤ 50 nM,"CC(C)c1c2c(nn1C)CCc1cnc(NC3CCN(S(C)(=O)=O)CC3)nc1-2 [Example 13, 9-Isopropyl-8-methyl-N-(1-(methylsulfonyl)piperidin-4-yl)-6,8-dihydro-5H-pyrazolo[3,4-h]quinazolin-2-amine]"
11,≤ 50 nM,"Cc1nc2c(n1C1CC1)-c1nc(NC3CCN(S(C)(=O)=O)CC3)ncc1CC2 [Example 19, 1-Cyclopropyl-2-methyl-N-(1-(methylsulfonyl)piperidin-4-yl)-4,5-dihydro-1H-imidazo[4,5-h]quinazolin-8-amine]"
12,≤ 50 nM,"CS(=O)(=O)N1CCC(Nc2ncc3c(n2)-c2c(nn(C4CCOC4)c2C2CC2)CC3)CC1 (stereo not shown) [Example 14, 9-Cyclopropyl-N-(1-(methylsulfonyl)piperidin-4-yl)-8-(tetrahydrofuran-3-yl)-6,8-dihydro-5H-pyrazolo[3,4-h]quinazolin-2-amine]"
13,≤ 50 nM,"Cn1nc2c(c1C1CC1)-c1nc(NC3CCN(S(C)(=O)=O)CC3)ncc1CC2 [Example 12, 9-Cyclopropyl-8-methyl-N-(1-(methylsulfonyl)piperidin-4-yl)-6,8-dihydro-5H-pyrazolo[3,4-h]quinazolin-2-amine]"
14,≤ 50 nM,"CS(=O)(=O)N1CCC(Nc2ncc3c(n2)-c2c(ncn2C2CC2)CO3)CC1 [Example 26, 1-Cyclopropyl-N-(1-(methylsulfonyl)piperidin-4-yl)-1,4-dihydroimidazo[4′,5′:4,5]pyrano[3,2-d]pyrimidin-8-amine]"
15,≤ 50 nM,"Cc1nc2c(n1C)-c1nc(NC3CCN(S(C)(=O)=O)CC3)ncc1CC2 [Example 17, 1,2-Dimethyl-N-(1-(methylsulfonyl)piperidin-4-yl)-4,5-dihydro-1H-imidazo[4,5-h]quinazolin-8-amine]"
16,200 to 500 nM,"Cn1cc2c(n1)COc1cnc(NC3CCN(S(C)(=O)=O)CC3)nc1-2 [Example 10, 8-Methyl-N-(1-(methylsulfonyl)piperidin-4-yl)-6,8-dihydropyrazolo[4′,3′:4,5]pyrano[3,2-d]pyrimidin-2-amine]"
17,≤ 50 nM,"Cc1nc2c(n1C)-c1nc(N[C@H]3CCN(S(=O)(=O)c4cn(C)cn4)C[C@H]3C)ncc1CC2 [Example 28, 1,2-Dimethyl-N-((3R,4S)-3-methyl-1-((1-methyl-1H-imidazol-4-yl)sulfonyl)piperidin-4-yl)-4,5-dihydro-1H-imidazo[4,5-h]quinazolin-8-amine]"

# From patent US11440914B2, “Tricyclic amine compounds as CDK2 inhibitors” (Incyte Corporation, priority 2019, dated 2022)
